Measurements taken from patent US6624151B1, “Compounds selectively inhibiting gamma 9 delta 2 T lymphocytes” (Institut National de la Sante et de la Recherche Medicale, priority 1999, dated 2003).
Like-named read-outs stand apart in the source and are kept apart here.

Legend:
[1] = tested on: Tγ9δ2 lymphocytes; assay: Induced cytotoxicity test, Tγ9δ2 lymphocyte clone stimulated by antigen BrHPP
[2] = tested on: Tγ9δ2 lymphocytes; conditions: FIG. 7 lower
Experimental: The two left graphs are obtained by stimulating the Tγ9δ2 lymphocytes as in Example 12, by adding first 9 nM of BrHPP antigen into the culture medium, then by adding increasing concentrations (on the abscissa) of the compound according to the invention, BrHPCP. The two right hand graphs are obtained by incorporating first of all 60 μM of the compound according to the invention, BrHPCP, into the culture medium in contact with the Tγ9δ2 lymphocytes, then by adding increasing concentrations (on the abscissa) of the antigen compound stimulating BrHPP. […] The upper graphs give the percentage of residual response in the cultures (induced cytotoxicity test). The lower graphs give the concentration of TNF salted out in pg/ml.

[3] = tested on: Tγ8δ3 lymphocytes; conditions: clone stimulated by a conventional antigen; increasing concentrations; FIG. 8
Experimental: A test of induced cytotoxicity is carried out as in Example 12, but with a clone of Tγ8δ3 lymphocyte stimulated by a conventional antigen of these lymphocytes (black circles), and in the presence of the compound according to the invention BrHPCP in increasing concentrations in the culture medium (black squares in FIG. 8).

[4] = read-out: IC50 concentration leading to the inhibition of 50% of the reference response, lymphocytes stimulated by 80 nM BrHPP, induced cytotoxicity test
[5] = read-out: bioactivity (selective inhibition of Tγ9δ2 lymphocytes), concentration of BrHPP equal to 150 μM (so in the source)

Compound: 3-Methyl-3-butene-1-yl-methylenediphosphonate [I PCP]
- IC50 [1, 4]: 700 µM

Compound: CC(O)(CBr)CCOP(=O)(O)C(F)(F)P(=O)(O)O (stereo not shown) [BrH PCF2P, 3-(Bromomethyl)-3-butanol-1-yl-difluoromethylenediphosphonate]
- IC50 [1, 4]: 150 µM

Compound: CC(O)(CBr)CCOP(=O)(O)CP(=O)(O)O (stereo not shown) [BrH PCP, 3-(Bromomethyl)-3-butanol-1-yl-methylenediphosphonate]
- inhibition of stimulation by BrHPP (TNF salted out) ([2]; 9 nM BrHPP first, then increasing BrHPCP): inhibits the stimulation by BrHPP
- reversibility of inhibition (TNF salted out) ([2]; 60 μM BrHPCP first, then increasing BrHPP): reversible
- inhibition of Tγ8δ3 lymphocytes [3]: does not inhibit the Tγ8δ3 lymphocytes
- inhibition of stimulation by BrHPP (residual response, induced cytotoxicity) ([1]; 9 nM BrHPP first, then increasing BrHPCP, FIG. 7 upper): inhibits the stimulation by BrHPP
- reversibility of inhibition (induced cytotoxicity) ([1]; 60 μM BrHPCP first, then increasing BrHPP, FIG. 7 upper): reversible
- IC50 [1, 4]: 15 µM

Compound: CC(O)(CBr)CCOP(=O)(O)C(F)P(=O)(O)O (stereo not shown) [BrHPCHFP, 3-(bromomethyl)-3-butanol-1-yl-monofluoromethylenediphosphonate]
- IC50 [1, 5]: 30 µM

Compound: CC1(CCOP(=O)(O)C(F)(F)P(=O)(O)O)CO1 (stereo not shown) [Epox PCF2P, 3,4-Epoxy-3-methyl-1-butyl-difluoromethylenediphosphonate]
- IC50 [1, 4]: 300 µM

Compound: CC1(CCOP(=O)(O)C(F)P(=O)(O)O)CO1 (stereo not shown) [Epox PCHFP, 3,4-epoxy-3-methyl-1-butyl-monofluoromethylenediphosphonate]
- IC50 [1, 5]: 50 µM

Compound: CC1(CCOP(=O)(O)CP(=O)(O)O)CO1 (stereo not shown) [Epox PCP, 3,4-Epoxy-3-methyl-1-butyl-methylenediphosphonate]
- IC50 [1, 4]: 30 µM
- IC50 ([1]; read-out: IC50 concentration, stated in text (formulation example), IC50 defined with BrHPP at 80 nM): 15 µM

Compound: C=C(C)CCOP(=O)(O)C(F)(F)P(=O)(O)O [I PCF2P, 3-Methyl-3-butene-1-yl-difluoromethylenediphosphonate]
- IC50 [1, 4]: 1000 µM

Compound: CC(O)(CI)CCOP(=O)(O)CP(=O)(O)O (stereo not shown) [IH PCP, 3-(Iodomethyl)-3-butanol-1-yl-methylenediphosphonate]
- IC50 [1, 4]: 15 µM

Compound: CC(C)(O)CCOP(=O)(O)CP(=O)(O)O [tButOH PCP, 3-Methyl-3-butanol-1-yl-methylenediphosphonate]
- IC50 [1, 4]: 1000 µM
